According to patent US20140349970A1 (ABBVIE INC., priority 2009, published 2014):

Target: T1, Syk catalytic domain (aa 356-635 with a C-terminal His-tag) (Homo sapiens, UniProt P43405)
T1 construct: His-tag (C); made in house
Assay: In vitro Syk kinase activity measured by trFRET, Syk catalytic domain
Format: biochemical
Settings: Syk catalytic domain (aa 356-635), trFRET, 0.001 mM ATP
Procedure, shortened: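 Kinase reaction: 0.14 nM His-tagged catalytic domain, 0.2 μM biotin-TYR1 peptide, 0.001 mM ATP in 50 mM MOPSO pH 6.5 with MgCl2, MnCl2, DTT, BSA, vanadate, ~60 min at rt, then EDTA quench. Phosphoproduct detected by trFRET (Eu anti-pTyr antibody/streptavidin-APC, 665 nm emission); IC50 from signal in linear range.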

Structure (SMILES) | IC50 [nM]
CCc1c(-c2ccc(C(=O)NCCN3CCOCC3)cc2)[nH]c2ncc3cnn(C)c3c12 [N.1.36] | 100 to 1000
CCc1c(-c2cn(C)nc2C)[nH]c2ncc3cnn(C)c3c12 [N.1.37] | 1000 to 10000
CCc1c(-c2cnn(C)c2C)[nH]c2ncc3cnn(C)c3c12 [N.1.38] | 1000 to 10000
CCCNC(=O)c1cccc(-c2[nH]c3ncc4cnn(C)c4c3c2CC)c1 [N.1.39] | 1000 to 10000
CCc1c(-c2cccc(S(=O)(=O)N(CC)CC)c2)[nH]c2ncc3cnn(C)c3c12 [N.1.40] | 1000 to 10000
Cn1ncc2cnc3[nH]c(-c4cccc(S(=O)(=O)NCCN5CCOCC5)c4)cc3c21 [N.1.41] | 100 to 1000
COCCNS(=O)(=O)c1cccc(-c2cc3c(ncc4cnn(C)c43)[nH]2)c1 [N.1.42] | 100 to 1000
CCc1c(-c2ccc(OC)cc2)[nH]c2ncc3cnn(C)c3c12 [N.1.43] | 100 to 1000
CCc1c(-c2cnn(C)c2)[nH]c2ncc3cnn(C)c3c12 [N.1.44] | 100 to 1000
CCc1c(-c2ccc(OCCN3CCOCC3)cc2)[nH]c2ncc3cnn(C)c3c12 [N.1.45] | 100 to 1000
Cn1ccc2cc(-c3cc4c(ncc5cnn(C)c54)[nH]3)ccc21 [N.1.46] | 100 to 1000
Cc1ccc(-c2cc3c(ncc4cnn(C)c43)[nH]2)c(C)c1 [N.1.47] | 1000 to 10000
COc1ccc2c(c1)c(-c1nc(C3CCCCC3)n3c1cnc1[nH]ccc13)cn2C [N.1.48] | 1000 to 10000
CC(C)(O)c1ccc(-c2nc(C3CCCCC3)n3c2cnc2[nH]ccc23)cc1 [N.1.49] | < 100
Cc1nc(-c2ccc(C(C)(C)O)cc2)c2cnc3[nH]ccc3n12 [N.1.50, 2-(4-(1-methyl-6H-imidazo[1,5-a]pyrrolo[2,3-e]pyrazin-3-yl)phenyl)propan-2-ol] | < 100
CC(C)(O)c1ccc(-c2nc(C3CC[C@H](NS(=O)(=O)C4CC4)C3)n3c2cnc2[nH]ccc23)cc1 (some centres unmarked) [N.1.51] | < 100
C=C(C)c1ccc(-c2nc(C3CC[C@H](NS(=O)(=O)C4CC4)C3)n3c2cnc2[nH]ccc23)cc1 (some centres unmarked) [N.1.52] | 100 to 1000
CC(C)(O)c1ccc(-c2ncn3c2cnc2[nH]ccc23)cc1 [N.1.53] | < 100
COc1ccc(-c2nc(C)n3c2cnc2[nH]ccc23)cc1 [N.1.54] | < 100
COc1ccc2c(c1)c(-c1nc(C)n3c1cnc1[nH]ccc13)cn2C [N.1.55] | 100 to 1000
Cc1ccc(-c2nc(C)n3c2cnc2[nH]ccc23)c2cc[nH]c12 [N.1.57] | 1000 to 10000
CC(C)(O)c1ccc(-c2nc(C(F)(F)F)n3c2cnc2[nH]ccc23)cc1 [N.1.58] | 100 to 1000
CN(C)c1nc(-c2ccc(C(C)(C)O)cc2)c2cnc3[nH]ccc3n12 [N.1.59] | < 100

Structure (SMILES) | IC50 [nM]
CCc1c[nH]c2ncc3c(-c4ccc(C(C)(C)O)cc4)nn(C)c3c12 [N.1.60] | 1000 to 10000
CS(=O)(=O)c1ccc(-c2nc([C@H]3CCCNC3)n3c2cnc2[nH]ccc23)cc1 [N.1.61] | 100 to 1000
CS(=O)(=O)c1ccc(-c2nc(C3CCCN(C(=O)CCO)C3)n3c2cnc2[nH]ccc23)cc1 (centres unmarked) [N.1.62] | 1000 to 10000
COCCC(=O)N1CCCC(c2nc(-c3ccc(S(C)(=O)=O)cc3)c3cnc4[nH]ccc4n23)C1 (centres unmarked) [N.1.63] | 1000 to 10000
CN(C)CC1CCN(c2nc(-c3ccc(S(C)(=O)=O)cc3)c3cnc4[nH]ccc4n23)C1 (centres unmarked) [N.1.64] | 1000 to 10000
CC(C)(O)c1ccc(-c2nc(N3CCC(CN)C3)n3c2cnc2[nH]ccc23)cc1 (centres unmarked) [N.1.66] | < 100
CCc1c[nH]c2ncc3c(-c4ccc(OC)c(F)c4)nn(C)c3c12 [N.1.67] | 100 to 1000
CCc1c[nH]c2ncc3c(-c4ccc5nccnc5c4)nn(C)c3c12 [N.1.68] | 1000 to 10000
CCc1c[nH]c2ncc3c(-c4ccc(OC(C)C)cc4)nn(C)c3c12 [N.1.69] | 100 to 1000
CCc1c[nH]c2ncc3c(-c4ccc(C(=O)NC5CC5)cc4)nn(C)c3c12 [N.1.70] | 100 to 1000
CCc1c[nH]c2ncc3c(-c4ccc(CO)cc4)nn(C)c3c12 [N.1.71] | 100 to 1000
CCc1c[nH]c2ncc3c(-c4ccc(S(N)(=O)=O)cc4)nn(C)c3c12 [N.1.72] | 100 to 1000
CCc1c[nH]c2ncc3c(-c4ccsc4)nn(C)c3c12 [N.1.73] | 100 to 1000
CCc1c[nH]c2ncc3c(-c4ccc(OC)cc4)nn(C)c3c12 [N.1.74] | 1000 to 10000
CCc1c[nH]c2ncc3c(-c4cccnc4)nn(C)c3c12 [N.1.75] | 1000 to 10000
CCc1c[nH]c2ncc3c(-c4cnn(C)c4)nn(C)c3c12 [N.1.76] | 100 to 1000
CCc1c[nH]c2ncc3c(-c4cc(OC)c(OC)c(OC)c4)nn(C)c3c12 [N.1.77] | 1000 to 10000
CCc1c(-c2ccc(OCCOC)cc2)[nH]c2ncc3cnn(C)c3c12 [N.1.79] | 100 to 1000
CCc1c(-c2ccc(OCCN(C)C)cc2)[nH]c2ncc3cnn(C)c3c12 [N.1.80] | 1000 to 10000
COc1ccc2c(c1)c(-c1cc3c(ncc4cnn(C)c43)[nH]1)cn2C(C)C [N.1.81] | 100 to 1000
CC(C)n1cc(-c2cc3c(ncc4cnn(C)c43)[nH]2)c2ccccc21 [N.1.82] | 100 to 1000
COc1ccc2c(c1)c(-c1cc3c(ncc4cnn(C)c43)[nH]1)nn2C [N.1.83] | 100 to 1000
CC(C)(O)c1ccc(-c2nc(C3CCOCC3)n3c2cnc2[nH]ccc23)cc1 [N.1.84] | 100 to 1000

Structure (SMILES) | IC50 [nM]
COc1ccc(-c2nc(N3CCN(C)CC3)n3c2cnc2[nH]ccc23)cc1 [N.1.85] | 1000 to 10000
COc1ccc(-c2nc(C3CCN(C)CC3)n3c2cnc2[nH]ccc23)cc1 [N.1.86] | 1000 to 10000
COc1ccc(-c2nc(C3CC3)n3c2cnc2[nH]ccc23)cc1 [N.1.87] | < 100
COCCc1nc(-c2ccc(OC)cc2)c2cnc3[nH]ccc3n12 [N.1.88] | 100 to 1000
COc1ccc(-c2nc(CN(C)C)n3c2cnc2[nH]ccc23)cc1 [N.1.89] | 1000 to 10000
CS(=O)(=O)c1ccc(-c2ncn3c2cnc2[nH]ccc23)cc1 [N.1.90] | < 100
COc1ccc(-c2nc(C(C)C)n3c2cnc2[nH]ccc23)cc1 [N.1.91] | 100 to 1000
CCCc1nc(-c2ccc(OC)cc2)c2cnc3[nH]ccc3n12 [N.1.92] | < 100
COc1ccc(-c2nc(CNC3CCCCC3O)n3c2cnc2[nH]ccc23)cc1 (centres unmarked) [N.1.93] | 1000 to 10000
CS(=O)(=O)c1ccc(-c2nc(CC3CNCCO3)n3c2cnc2[nH]ccc23)cc1 (centres unmarked) [N.1.94] | 100 to 1000
CN1CCN(C(=O)CCO)C[C@@H]1c1nc(-c2ccc(C(C)(C)O)cc2)c2cnc3[nH]ccc3n12 [N.1.95] | 100 to 1000
CN1CCN(Cc2nc(-c3ccc(C(C)(C)O)cc3)c3cnc4[nH]ccc4n23)CC1 [N.1.96] | 1000 to 10000
CC(C)(O)c1ccc(-c2nc(CN3CCCNCC3)n3c2cnc2[nH]ccc23)cc1 [N.1.97] | 100 to 1000
COc1ccc(-c2ncn3c2cnc2[nH]ccc23)cc1 [N.1.98] | < 100
Cc1nc(-c2ccc(C3(O)CCN(C(=O)OC(C)(C)C)CC3)cc2)c2cnc3[nH]ccc3n12 [N.1.99] | < 100
Cn1cc(-c2cc3c(ncc4cnn(C)c43)[nH]2)c2cnccc21 [N.1.100] | 100 to 1000
Cn1cc(-c2cc3c(ncc4cnn(C)c43)[nH]2)c2cc(C(C)(C)O)ccc21 [N.1.101] | < 100
Cc1nc(-c2ccc(C(C)(C)O)cc2F)c2cnc3[nH]ccc3n12 [N.1.102] | 100 to 1000
Cc1nc(-c2ccc(C(C)(C)O)cc2Cl)c2cnc3[nH]ccc3n12 [N.1.103] | 1000 to 10000
Cc1cc(C(C)(C)O)ccc1-c1nc(C)n2c1cnc1[nH]ccc12 [N.1.104] | 1000 to 10000
COc1ccc(-c2nc(CCN(C)C)n3c2cnc2[nH]ccc23)cc1 [N.1.105] | 1000 to 10000
COc1ccc(-c2nnn3c2cnc2[nH]ccc23)cc1 [N.1.107] | 100 to 1000
Cc1nc(-c2ccc(C(C)(C)O)c(Cl)c2)c2cnc3[nH]ccc3n12 [N.1.108] | < 100

Structure (SMILES) | IC50 [nM]
CC(C)(O)c1ccc(-c2nc(-c3ccccc3CO)n3c2cnc2[nH]ccc23)cc1 [N.1.109] | < 100
CC(C)(O)c1ccc(-c2ncn3c2cnc2[nH]cc(CO)c23)cc1 [N.1.110] | 100 to 1000
Cc1ccc2c(c1)c(-c1cc3c(ncc4cnn(C)c43)[nH]1)cn2C [N.1.111] | < 100
Cn1cc(-c2cc3c(ncc4cnn(C)c43)[nH]2)c2cc(OCCN3CCOCC3)ccc21 [N.1.112] | < 100
COc1ccc(-c2nc(CO)n3c2cnc2[nH]ccc23)cc1 [N.1.113] | 100 to 1000
COc1ccc(-c2nc(CNC3CC3)n3c2cnc2[nH]ccc23)cc1 [N.1.114] | 1000 to 10000
Cc1cc(-c2cc3c(ncc4cnn(C)c43)[nH]2)ccc1N1CCN(C)CC1 [N.1.115] | < 100
COc1ccc2c(n1)c(-c1cc3c(ncc4cnn(C)c43)[nH]1)cn2C [N.1.116] | 100 to 1000
Cn1cc(-c2cc3c(ncc4cnn(C)c43)[nH]2)c2nccnc21 [N.1.117] | 100 to 1000
Cn1ncc2cnc3[nH]c(-c4ccncc4)cc3c21 [N.2.1] | 100 to 1000
Cn1ncc2cnc3[nH]c(-c4cccnc4)cc3c21 [N.2.2] | 100 to 1000
CN(C)CCOc1ccc(-c2cc3c(ncc4cnn(C)c43)[nH]2)cc1 [N.2.3] | 100 to 1000
Cn1ncc2cnc3[nH]c(-c4ccc(OCCN5CCOCC5)cc4)cc3c21 [N.2.4] | < 100
Cn1ncc2cnc3[nH]c(-c4ccc(OCCCN5CCOCC5)cc4)cc3c21 [N.2.5] | < 100
Cn1ncc2cnc3[nH]c(-c4cccc5ncccc45)cc3c21 [N.2.6] | 1000 to 10000
Cn1ncc2cnc3[nH]c(-c4ccc5ncccc5c4)cc3c21 [N.2.7] | 100 to 1000
Cn1ncc2cnc3[nH]c(-c4ccc5nccnc5c4)cc3c21 [N.2.8] | 100 to 1000
COc1ccc2c(c1)c(-c1cc3c(ncc4cnn(C)c43)[nH]1)cn2CC(=O)N1CCOCC1 [N.2.9] | < 100
COc1ccc2c(c1)c(-c1cc3c(ncc4cnn(C)c43)[nH]1)cn2CCN1CCOCC1 [N.2.11] | < 100
COc1ccc2c(c1)c(-c1cc3c(ncc4cnn(C)c43)[nH]1)cn2CCO [N.2.12] | < 100
